# Measured values: ChEMBL document CHEMBL1201862, “PubChem BioAssay data set” (2004)
#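 Test compounds were applied to cells in 96-well plates for 48 hours at 5 doses. GI50 is the concentration that inhibits growth by half.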 Active and inactive are the calls of the source. No stated cut-off is given here; in the data, active = GI50 up to about 1.1 µM and inactive = higher.
# Legend:
# Assay in all cases: NCI anticancer screen, dose series, 48 h
# 786-0 = tested on: 786-0
# EKVX = tested on: EKVX
# HCT-116 = tested on: HCT-116
# HOP-92 = tested on: HOP-92
# HT-29 = tested on: HT-29
# KM12 = tested on: KM12
# M14 = tested on: M14
# MCF7 = tested on: MCF7
# MDA-MB-435 = tested on: MDA-MB-435
# MOLT-4 = tested on: MOLT-4
# NCI-H23 = tested on: NCI-H23
# RPMI-8226 = tested on: RPMI-8226
# RXF 393 = tested on: RXF 393
# SK-MEL-28 = tested on: SK-MEL-28
# SR = tested on: SR
# TK-10 = tested on: TK-10
# HCC 2998 = tested on: HCC 2998
# NCI-H226 = tested on: NCI-H226
# NCI-H522 = tested on: NCI-H522
SMILES,GI50 (786-0),GI50 (EKVX),GI50 (HCT-116),GI50 (HOP-92),GI50 (HT-29),GI50 (KM12),GI50 (M14),GI50 (MCF7),GI50 (MDA-MB-435),GI50 (MOLT-4),GI50 (NCI-H23),GI50 (RPMI-8226),GI50 (RXF 393),GI50 (SK-MEL-28),GI50 (SR),GI50 (TK-10),GI50 (HCC 2998),GI50 (NCI-H226),GI50 (NCI-H522)
OC1(c2ccc(Cl)cc2)c2ccc(CN3CCCC3)cc2C2=NCCN21 (stereo unspecified),15.2 µM (inactive),15.2 µM (inactive),14.1 µM (inactive),2.53 µM (inactive),13.1 µM (inactive),12.8 µM (inactive),3.66 µM (inactive),16.8 µM (inactive),10.5 µM (inactive),11.6 µM (inactive),16.9 µM (inactive),10.2 µM (inactive),8.26 µM (inactive),10.7 µM (inactive),10.4 µM (inactive),4.98 µM (inactive),,,
CC(C)OC(=O)Nc1cccc(Cl)c1 [CHLORPROPHAM],> 100 µM (inactive),63.1 µM (inactive),> 100 µM (inactive),> 100 µM (inactive),87.7 µM (inactive),70.1 µM (inactive),> 100 µM (inactive),> 100 µM (inactive),> 100 µM (inactive),> 100 µM (inactive),> 100 µM (inactive),> 100 µM (inactive),> 100 µM (inactive),> 100 µM (inactive),> 100 µM (inactive),> 100 µM (inactive),> 100 µM (inactive),> 100 µM (inactive),
O=c1ccn(C/C=C/c2ccccc2)c(=S)n1C/C=C/c1ccccc1,> 100 µM (inactive),66.8 µM (inactive),44.6 µM (inactive),> 100 µM (inactive),> 100 µM (inactive),> 100 µM (inactive),73.6 µM (inactive),18.3 µM (inactive),60 µM (inactive),50.4 µM (inactive),33.3 µM (inactive),,9.75 µM (inactive),> 100 µM (inactive),8.24 µM (inactive),> 100 µM (inactive),50.7 µM (inactive),> 100 µM (inactive),67.8 µM (inactive)
COC1(OC)CC(CO)(CNc2nc(N)nc(Cl)c2C=O)C1,> 100 µM (inactive),22.8 µM (inactive),39.3 µM (inactive),14.6 µM (inactive),55.6 µM (inactive),49 µM (inactive),,57.7 µM (inactive),25.8 µM (inactive),21.1 µM (inactive),17.6 µM (inactive),> 100 µM (inactive),34.1 µM (inactive),50 µM (inactive),20.1 µM (inactive),> 100 µM (inactive),28.1 µM (inactive),93.3 µM (inactive),1.99 µM (inactive)
CN(C(=O)C12C3C4C1C1C2C3C41C(=O)O)C(C)(C)C (stereo unspecified),> 100 µM (inactive),> 100 µM (inactive),> 100 µM (inactive),> 100 µM (inactive),> 100 µM (inactive),> 100 µM (inactive),> 100 µM (inactive),> 100 µM (inactive),> 100 µM (inactive),> 100 µM (inactive),> 100 µM (inactive),,> 100 µM (inactive),> 100 µM (inactive),> 100 µM (inactive),> 100 µM (inactive),> 100 µM (inactive),,> 100 µM (inactive)
NS(=O)(=O)c1cc(S(N)(=O)=O)c(NC(=O)N(c2ccccc2)c2ccccc2)c(Cl)c1Cl,30.1 µM (inactive),19.1 µM (inactive),38.7 µM (inactive),1.72 µM (inactive),19.5 µM (inactive),20.3 µM (inactive),15.7 µM (inactive),35 µM (inactive),21.5 µM (inactive),12.4 µM (inactive),20 µM (inactive),15.3 µM (inactive),,34.4 µM (inactive),18.4 µM (inactive),32.7 µM (inactive),19.2 µM (inactive),18.9 µM (inactive),13.2 µM (inactive)
C=C(CO[Si](C)(C)C(C)(C)C)C(C)=O,17.2 µM (inactive),> 100 µM (inactive),13.3 µM (inactive),,19.5 µM (inactive),58.1 µM (inactive),13.1 µM (inactive),23.3 µM (inactive),17.6 µM (inactive),2.18 µM (inactive),26.3 µM (inactive),4.88 µM (inactive),14.5 µM (inactive),17.8 µM (inactive),3.55 µM (inactive),> 100 µM (inactive),26.1 µM (inactive),> 69.3 µM (inactive),3.78 µM (inactive)
CC1(C)CC(=O)C(C(c2cccc(O)c2O)C2C(=O)CC(C)(C)CC2=O)C(=O)C1,52.6 µM (inactive),> 100 µM (inactive),> 100 µM (inactive),49.3 µM (inactive),> 100 µM (inactive),> 100 µM (inactive),> 100 µM (inactive),49.2 µM (inactive),91 µM (inactive),30.3 µM (inactive),> 100 µM (inactive),> 100 µM (inactive),> 100 µM (inactive),> 100 µM (inactive),36 µM (inactive),> 100 µM (inactive),,> 100 µM (inactive),63.2 µM (inactive)
O=C(O[C@H](/C=C/c1ccccc1)P1(=O)N(Cc2ccccc2)[C@@H]2CCCC[C@H]2N1Cc1ccccc1)c1ccccc1,3.83 µM (inactive),3.96 µM (inactive),3.01 µM (inactive),1.91 µM (inactive),3.45 µM (inactive),3.24 µM (inactive),4.11 µM (inactive),3.63 µM (inactive),3.63 µM (inactive),,2.47 µM (inactive),2.33 µM (inactive),,3.05 µM (inactive),3.44 µM (inactive),38.9 µM (inactive),5.9 µM (inactive),2.61 µM (inactive),3.95 µM (inactive)
N#Cc1nc(CCN2C(=O)c3ccccc3C2=O)oc1N,> 100 µM (inactive),> 100 µM (inactive),> 100 µM (inactive),,> 100 µM (inactive),4.45 µM (inactive),> 100 µM (inactive),> 100 µM (inactive),> 100 µM (inactive),> 100 µM (inactive),> 100 µM (inactive),> 100 µM (inactive),> 100 µM (inactive),> 100 µM (inactive),> 100 µM (inactive),> 100 µM (inactive),0.0845 µM (active),> 100 µM (inactive),> 100 µM (inactive)
COc1cc(-c2oc3ccccc3c(=O)c2O)cc(OC)c1OC,9.75 µM (inactive),25.3 µM (inactive),10.3 µM (inactive),4.06 µM (inactive),> 74.8 µM (inactive),> 100 µM (inactive),14 µM (inactive),> 100 µM (inactive),> 100 µM (inactive),4.72 µM (inactive),61 µM (inactive),3.43 µM (inactive),15.6 µM (inactive),> 100 µM (inactive),3.03 µM (inactive),29 µM (inactive),> 100 µM (inactive),,11.4 µM (inactive)
COc1ccccc1C[C@@H]1OC2(C=CC(=O)CC2SC(=O)c2ccccc2)O[C@H]1Cc1ccccc1OC (stereo partly specified),0.275 µM (active),,0.241 µM (active),1.64 µM (inactive),1.65 µM (inactive),2.48 µM (inactive),1.56 µM (inactive),0.363 µM (active),1.94 µM (inactive),0.449 µM (active),2.03 µM (inactive),0.3 µM (active),0.121 µM (active),1.75 µM (inactive),0.308 µM (active),1.54 µM (inactive),,2.08 µM (inactive),
Cc1n[nH]c(=O)c2cc(-c3ccccc3)[nH]c12,> 100 µM (inactive),36.6 µM (inactive),52.6 µM (inactive),> 100 µM (inactive),33.2 µM (inactive),88.5 µM (inactive),53.3 µM (inactive),30.8 µM (inactive),51.9 µM (inactive),17.6 µM (inactive),84.1 µM (inactive),37.6 µM (inactive),> 100 µM (inactive),,46.8 µM (inactive),59.3 µM (inactive),44.3 µM (inactive),72.9 µM (inactive),
COc1ccccc1NCc1cccc2c(=O)c3ccc(Cl)cc3oc12,> 100 µM (inactive),> 100 µM (inactive),> 100 µM (inactive),25.7 µM (inactive),46.6 µM (inactive),40.1 µM (inactive),> 100 µM (inactive),28.1 µM (inactive),65 µM (inactive),> 100 µM (inactive),59.3 µM (inactive),39.3 µM (inactive),,> 100 µM (inactive),83.4 µM (inactive),> 100 µM (inactive),> 100 µM (inactive),> 100 µM (inactive),> 100 µM (inactive)
O=C1/C(=C2\SCC(=O)N2c2ccccc2)SC(=S)N1c1ccccc1,47.6 µM (inactive),30.3 µM (inactive),46.3 µM (inactive),23.3 µM (inactive),56.1 µM (inactive),51.9 µM (inactive),> 100 µM (inactive),36.8 µM (inactive),32.1 µM (inactive),17.7 µM (inactive),72.6 µM (inactive),36.3 µM (inactive),34.4 µM (inactive),35.9 µM (inactive),12 µM (inactive),28.7 µM (inactive),28.2 µM (inactive),20.5 µM (inactive),
O=S(=O)(N=[Se](=O)(c1ccccc1)c1ccccc1)c1ccccc1,> 100 µM (inactive),> 100 µM (inactive),> 100 µM (inactive),> 100 µM (inactive),> 100 µM (inactive),> 100 µM (inactive),> 100 µM (inactive),88.3 µM (inactive),> 100 µM (inactive),> 100 µM (inactive),> 100 µM (inactive),> 100 µM (inactive),,> 100 µM (inactive),> 100 µM (inactive),> 100 µM (inactive),> 100 µM (inactive),> 100 µM (inactive),> 100 µM (inactive)
